Laboratory results as given in paper PMC8136953 (Veterinary Medicine and Science, 2020).
Where two headings read alike, the source gives them in different places.

Legend:
[1] = Minimum plasma concentrations of FLO during multiple oral administrations; type: in vivo; details: European seabass (Dicentrarchus labrax), 10 mg/kg/day, multiple oral 10 mg/kg per day for seven consecutive days, 24°C, read-out: Minimum plasma concentrations at the 24 hr sampling intervals
Method: The extraction step was repeated twice.
(§1) The flow rate was 1.0 ml/min.
Results are presented as means ± SD (standard deviation of the mean). […] The SPSS version 25.0 (International Business Machines Corporation, Armonk, NY, USA) was used for the statistical analysis.

[2] = Residue depletion in muscle plus skin and withdrawal times after multiple oral dosing; type: in vivo, European seabass Dicentrarchus labrax; details: 10 mg kg^−1 day^−1 for 7 days, 24°C, mean ± SD
Method: Briefly, muscle plus skin samples were sheared, and subsequently 2 g of ground sample was weighed into a 50 ml centrifuge tube. Ten ml of ethyl acetate were added and the mixture was homogenized with an IKA Ultra‐Turrax T25 Disperser (IKA®‐Werke GmbH & Co. KG, Staufen, Germany) for 30 s at […]. The mixture was agitated for 20 min and then was centrifuged at 3,500 rpm/min for 10 min at 5°C. […] The combined extract was then evaporated to dryness at 45°C under nitrogen stream. Two milliliter of hexane and 1 ml of mobile phase solution were added in the residue. After gentle agitation for 5 min, the mixture was centrifuged (2,150 g for 5 min). The upper layer (hexane) was discarded and the de‐fatting step was repeated. The bottom layer (1 ml) was filtered (0.22 μm nylon filter) and then was subjected to HPLC analysis.
as §1
Withdrawal period was determined at the time when the upper one‐sided 95% tolerance limit for the residue was below the MRL with 95% confidence.

[3] = cited from earlier work; for Primary route of excretion of FLO and its metabolites: single oral dose 10 mg/kg fish, ref Feng et al. (2008)
[4] = set-up: method as in Kosoff et al. (2009); details: 0‰, MO, 10 × 10d mg/kg fish, 49–52 g, 20–25 °C; ref Kosoff et al. (2009); cited from earlier work
[5] = set-up: method as in Huang et al. (2019); details: 0‰, 50 g, ref Huang et al. (2019), cited from earlier work; for C max / T max / t 1/2b: SO‐FA, 25 mg/kg fish
[6] = 0‰, cited from earlier work
[7] = set-up: method as in Wrzesinski et al. (2006); details: 0‰, MO, 10 × 12d mg/kg fish, 916 g, 18–20 °C; ref Wrzesinski et al. (2006); cited from earlier work
[8] = set-up: method as in Park et al. (2006); details: 0‰, SO, 20 mg/kg fish, 280 g, 24 °C; ref Park et al. (2006); cited from earlier work
[9] = set-up: method as in Yanong et al. (2005); details: 0‰, SO, 50 mg/kg fish, 19 g, 23–25 °C; ref Yanong et al. (2005); cited from earlier work
[10] = 0‰, cited from earlier work; for WT: MO, 13 °C
[11] = cited from earlier work
[12] = set-up: method as in de Ocenda et al. (2017); details: 35‰, SO‐FA, 100 mg/kg fish, 101 g, 16 °C; ref de Ocenda et al. (2017); cited from earlier work
[13] = set-up: method as in Kverme et al. (2019); details: 34‰, SO‐FA, 10 mg/kg fish, 114 g, 12 °C; ref Kverme et al. (2019); cited from earlier work
[14] = set-up: method as in Kosoff et al. (2009); details: 26–30‰, MO, 10 × 10d mg/kg fish, 384–426 g, 20–25 °C; ref Kosoff et al. (2009); cited from earlier work
[15] = 33‰, SO‐FA, cited from earlier work
[16] = set-up: method as in Table 4; details: after dietary delivery, different environmental conditions; ref Table 4; cited from earlier work
[17] = 0‰, SO‐FA, 10 mg/kg fish, 98 g, 22 °C, ref Feng and Jia (2009)
[18] = MO‐FA, 10 × 5d mg/kg fish, 330 g, 10 °C, ref Yang et al. (2020)
[19] = MO‐FA, 10 × 5d mg/kg fish, 330 g, 25 °C, ref Yang et al. (2020)
[20] = SO‐FA, 10 mg/kg fish, 260 g, 10 °C, ref Yang et al. (2019)
[21] = SO‐FA, 10 mg/kg fish, 260 g, 25 °C, ref Yang et al. (2019)
[22] = SO‐FA, 40 mg/kg fish, 260 g, 25 °C, ref Zhao et al. (2011)
[23] = SO, 10 mg/kg fish, 140 g, 14–15 °C, ref Pourmolaie et al. (2015)
[24] = 30‰, SO‐FA, 10 mg/kg fish, 194 g, 11 °C, ref Martinsen et al. (1993)
[25] = 24 mg/kg fish, 125 g, 23 °C, ref Feng et al. (2016)
[26] = 5–10 mg/kg fish, 103–301 g, 29 °C, ref Feng et al. (2018)

In the case of `CS(=O)(=O)c1ccc([C@@H](O)[C@@H](CF)NC(=O)C(Cl)Cl)cc1` [FLO, florfenicol], the concentration at 24 hr [1] is reported as 220 to 550 ng/mL, the “Muscle plus skin FLO concentration” value ([2]; 144 hours after last dosing) is reported as “below LOQ” and the concentration at 24 hours after last dosing ([2]; European seabass (Dicentrarchus labrax), in vivo, 24 hours after last dosing) is reported as 800 ± 1740 ng/g. The concentration at 48 hours after last dosing ([2]; European seabass (Dicentrarchus labrax), in vivo, 48 hours after last dosing) was 250 ± 640 ng/g, the concentration at 72 hours after last dosing ([2]; European seabass (Dicentrarchus labrax), in vivo, 72 hours after last dosing) was 40 ± 20 ng/g and the concentration at 96 hours after last dosing ([2]; European seabass (Dicentrarchus labrax), in vivo, 96 hours after last dosing) was 40 ± 10 ng/g. The concentration at 144 hours after last dosing ([2]; European seabass (Dicentrarchus labrax), in vivo, 144 hours after last dosing) was 30 ± 10 ng/g, the C max [3, 17] was 4500 ng/mL and the T max [3, 17] was 12 h. For the same compound, the “t 1/2b” value [3, 17] was 10.0 h, the “Primary route of excretion of FLO and its metabolites” value ([3]; freshwater hybrid tilapia) was “the bile duct” and the “Primary route of excretion of FLO and its metabolites” value ([3]; seawater tilapia) was “mostly the gills”. The C max [4] was 9200 to 15100 ng/mL, the WT [4] was 232 to 302 h and the WT ([5]; MO‐FA, 25 × 3d mg/kg fish, 28 °C) was 198 h. For the same compound, the C max ([5]; 18 °C) was 5900 ng/mL, the T max ([5]; 18 °C) was 6.0 h and the “t 1/2b” value ([5]; 18 °C) was 26.8 h. For the same compound, the C max ([5]; 28 °C) was 6200 ng/mL, the T max ([5]; 28 °C) was 2.8 h and the “t 1/2b” value ([5]; 28 °C) was 16.1 h. For the same compound, the C max [6, 18] was 4000 ng/mL, the “t 1/2b” value [6, 18] was 19.9 h and the C max [6, 19] was 1700 ng/mL. For the same compound, the “t 1/2b” value [6, 19] was 12.9 h, the C max [6, 20] was 2400 ng/mL and the T max [6, 20] was 2.8 h. For the same compound, the “t 1/2b” value [6, 20] was 22.9 h, the C max [6, 21] was 3500 ng/mL and the T max [6, 21] was 3.7 h. The “t 1/2b” value [6, 21] was 9.6 h, the C max [6, 22] was 29300 ng/mL and the T max [6, 22] was 1.6 h. The “t 1/2b” value [6, 22] was 2.2 h, the WT [7] was 96 h and the C max [8] was 9600 ng/mL. The T max [8] was 8 h, the C max [9] was 2600 ng/mL and the T max [9] was 5 h. For the same compound, the WT ([10]; 10 × 10d mg/kg fish, 220 g, ref Di Salvo et al. (2013)) was 108 h, the WT ([10]; 15–20 × 10d mg/kg fish, 126–617 g, ref Meinertz et al. (2014)) was 360 h and the C max [10, 23] was 6100 ng/mL. For the same compound, the T max [10, 23] was 9 h, the C max [11, 24] was 4000 ng/mL and the T max [11, 24] was 10.3 h. For the same compound, the C max ([11]; 35‰, MO, 10 × 10d mg/kg fish, 497 g, 10 °C, ref Horsberg et al. (1996)) was 8560 ng/mL, the C max ([11]; 35‰, SO‐FA, 10 mg/kg fish, 460 g, 10 °C, ref Horsberg et al. (1996)) was 9100 ng/mL and the C max [12] was 55400 ng/mL. For the same compound, the T max [12] was 12 h, the C max [13] was 3600 ng/mL and the T max [13] was 21.2 h. The “t 1/2b” value [13] was 21.2 h, the C max [14] was 1800 to 3500 ng/mL and the WT [14] was 17 to 62 h. The C max [15, 25] was 28000 ng/mL, the “t 1/2b” value [15, 25] was 11.6 h and the C max [15, 26] was 6000 to 13000 ng/mL. The “t 1/2b” value [15, 26] was 8.5 to 9.3 h and the “Maximum plasma concentration in other farmed fish species” value [16] was 1.8 to 55 µg/mL.
